# How the values were obtained:
# [1] = molecular target: T1, Bromodomain-containing protein 4 (Homo sapiens, UniProt O60885); test: Induction of BRD4 degradation in human HEK293T cells; assay type: cell-based
# [2] = molecular target: T1, Bromodomain-containing protein 4; test: Induction of BRD4 degradation in human HEK293T cells at 10 uM measured at 6 hrs relative to control; assay type: cell-based
# [3] = molecular target: T1, Bromodomain-containing protein 4; test: Induction of BRD4 degradation in human HEK293T cells at 20 uM relative to control; assay type: cell-based
# [4] = molecular target: T1, Bromodomain-containing protein 4; test: Induction of BRD4 degradation in human EOL1 cells relative to control; assay type: cell-based
# EOL1 = test: Antiproliferative activity against human EOL1 cells assessed as inhibition of cell growth; assay type: functional, cell-based
# [5] = molecular target: T1, Bromodomain-containing protein 4; test: Induction of BRD4 degradation in human EOL1 cells; assay type: cell-based
# HL-60 = test: Antiproliferative activity against human HL-60 cells assessed as inhibition of cell growth; assay type: functional, cell-based
# [6] = Half life of the compound in DMSO; assay type: physicochemical
# BXPC-3 = test: Antiproliferative activity against human BXPC-3 cells assessed as inhibition of cell growth incubated for 72 hrs by MTT assay; assay type: functional, cell-based; conditions: BXPC-3, 72 h
# RS4-11 [7] = test: Antiproliferative activity against human RS4-11 cells assessed as reduction in cell viability incubated for 72 hrs under light irradiation; assay type: functional, cell-based; conditions: RS4-11, light or radiation study
# RS4-11 [8] = test: Antiproliferative activity against human RS4-11 cells assessed as reduction in cell viability incubated for 72 hrs under dark condition; assay type: functional, cell-based; conditions: RS4-11, 72 h
# [9] = molecular target: T2, Bromodomain-containing protein 2 (Homo sapiens, UniProt P25440); test: Induction of BRD2 degradation in human 22Rv cells incubated for 16 hrs by Western blot analysis; assay type: cell-based; conditions: 22rv1
# T2 sequence (P25440 whole entry): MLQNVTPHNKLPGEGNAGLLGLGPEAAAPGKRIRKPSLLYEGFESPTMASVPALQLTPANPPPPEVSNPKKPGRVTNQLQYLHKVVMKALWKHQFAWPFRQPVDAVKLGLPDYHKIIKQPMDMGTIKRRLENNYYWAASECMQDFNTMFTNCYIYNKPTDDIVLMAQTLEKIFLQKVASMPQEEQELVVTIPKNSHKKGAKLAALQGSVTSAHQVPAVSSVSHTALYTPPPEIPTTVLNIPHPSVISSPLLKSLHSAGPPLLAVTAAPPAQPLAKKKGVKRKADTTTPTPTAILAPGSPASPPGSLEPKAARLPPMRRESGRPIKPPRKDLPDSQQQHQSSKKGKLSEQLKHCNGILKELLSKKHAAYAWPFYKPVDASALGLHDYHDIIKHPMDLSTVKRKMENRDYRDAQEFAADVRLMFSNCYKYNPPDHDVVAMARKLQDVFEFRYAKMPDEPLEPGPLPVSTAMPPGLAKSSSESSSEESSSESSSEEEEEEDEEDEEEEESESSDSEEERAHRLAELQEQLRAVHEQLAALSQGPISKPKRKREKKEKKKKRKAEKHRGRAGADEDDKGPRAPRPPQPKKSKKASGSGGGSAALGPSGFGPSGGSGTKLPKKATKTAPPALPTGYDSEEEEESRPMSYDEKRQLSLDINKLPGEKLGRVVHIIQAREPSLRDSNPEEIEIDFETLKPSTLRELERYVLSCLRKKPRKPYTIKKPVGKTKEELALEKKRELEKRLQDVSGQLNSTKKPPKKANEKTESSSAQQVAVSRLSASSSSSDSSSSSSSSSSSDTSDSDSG
# [10] = molecular target: von Hippel-Lindau disease tumor suppressor/Bromodomain-containing protein 2 (Homo sapiens, UniProt P25440+P40337); test: Protac activity at BRD2/VHL-bound E3 ligase in human 22Rv1 cells assessed as reduction c-Myc level incubated for 24 hrs by Western blot analysis; assay type: cell-based
# Sequence of von Hippel-Lindau disease tumor suppressor/Bromodomain-containing protein 2 (P25440 whole entry): as above
# Sequence of von Hippel-Lindau disease tumor suppressor/Bromodomain-containing protein 2 (P40337 whole entry): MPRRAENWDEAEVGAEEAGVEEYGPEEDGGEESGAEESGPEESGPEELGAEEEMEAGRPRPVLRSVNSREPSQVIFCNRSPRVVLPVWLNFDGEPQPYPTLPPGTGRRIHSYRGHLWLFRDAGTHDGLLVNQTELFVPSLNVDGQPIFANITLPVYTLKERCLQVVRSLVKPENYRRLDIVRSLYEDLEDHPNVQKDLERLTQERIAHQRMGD
# [11] = molecular target: T2, Bromodomain-containing protein 2; test: Induction of BRD2 degradation in human LNCaP-95 cells incubated for 16 hrs by Western blot analysis; assay type: cell-based
# [12] = molecular target: T2, Bromodomain-containing protein 2; test: Induction of BRD2 degradation in human VCaP cells incubated for 16 hrs by Western blot analysis; assay type: cell-based
# Caspase-3/Caspase-7 = molecular target: T3, Caspase-3/Caspase-7 (Homo sapiens, UniProt P42574+P55210); test: Activation of caspase 3/7 in human 22Rv1 cells by Caspase-Glo reagent based analysis; assay type: cell-based
# T3 sequence (P42574 whole entry): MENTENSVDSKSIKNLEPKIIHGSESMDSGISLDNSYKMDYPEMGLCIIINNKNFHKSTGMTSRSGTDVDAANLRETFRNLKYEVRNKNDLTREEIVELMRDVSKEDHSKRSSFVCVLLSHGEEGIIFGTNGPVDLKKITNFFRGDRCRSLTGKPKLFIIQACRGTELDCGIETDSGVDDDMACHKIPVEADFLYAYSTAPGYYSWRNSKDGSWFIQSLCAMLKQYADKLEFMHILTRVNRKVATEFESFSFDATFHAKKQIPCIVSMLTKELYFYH
# T3 sequence (P55210 whole entry): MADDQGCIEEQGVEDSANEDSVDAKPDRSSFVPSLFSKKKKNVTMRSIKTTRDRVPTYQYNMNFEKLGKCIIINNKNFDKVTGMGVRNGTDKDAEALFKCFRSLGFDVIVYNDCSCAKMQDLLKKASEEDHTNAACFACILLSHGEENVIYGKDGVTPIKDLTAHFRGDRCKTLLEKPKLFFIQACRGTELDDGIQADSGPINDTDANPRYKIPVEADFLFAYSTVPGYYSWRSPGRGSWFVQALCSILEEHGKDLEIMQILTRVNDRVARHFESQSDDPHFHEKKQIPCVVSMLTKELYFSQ
# MM1.S = test: Antiproliferative activity against human MM1.S cells assessed as inhibition of cell growth; assay type: functional, cell-based
# MV4-11 [13] = test: Antiproliferative activity against human MV4-11 cells assessed as inhibition of cell growth; assay type: functional, cell-based
# MDA-MB-468 [14] = test: Antiproliferative activity against human MDA-MB-468 cells assessed as inhibition of cell growth; assay type: functional, cell-based
# [15] = molecular target: T1, Bromodomain-containing protein 4; test: Induction of degradation of BRD4 (unknown origin)
# [16] = molecular target: T1, Bromodomain-containing protein 4; test: Induction of BRD4 degradation in human HeLa cells incubated for 24 hrs by Western blot analysis; assay type: cell-based
# SUD4 = test: Antiproliferative activity against human SU-DHL-4 cells assessed as reduction in cell viability measured after 48 hrs by MTT assay; assay type: functional
# NAMALVA = test: Antiproliferative activity against human NAMALVA cells; assay type: functional
# MV4-11 [17] = test: Cytotoxicity against human MV4-11 cells; assay type: functional, cell-based
# MDA-MB-468 [18] = test: Antiproliferative activity against human MDA-MB-468 cells; assay type: functional, cell-based
# [19] = molecular target: T1, Bromodomain-containing protein 4; test: Induction of BRD4 (unknown origin) degradation at 1 uM relative to control
# [20] = molecular target: T1, Bromodomain-containing protein 4; test: Binding affinity to BRD4 bromodomain 1 in human Ramos cells; assay type: cell-based
# [21] = molecular target: T1, Bromodomain-containing protein 4; test: Induction of BRD4 degradation in human HD-MB03 cells measured after 12 hrs; assay type: cell-based
# MV4-11 [22] = test: Cytotoxicity against human MV4-11 cells measured after 96 hrs; assay type: functional, cell-based; conditions: MV4-11, 96 h
# [23] = molecular target: T1, Bromodomain-containing protein 4; test: Induction of BRD4 degradation in human HD-MB03 cells at 100 nM measured at 12 hrs relative to control; assay type: cell-based
# MDA-MB-468 [24] = test: Antitumor activity against human MDA-MB-468 cells xenografted in mouse assessed as tumor growth inhibition at 5 mg/kg, iv; assay type: functional; conditions: read-out: TGI
# [25] = Antiproliferative activity against human Burkitts lymphoma cells; assay type: functional; conditions: Burkitts lymphoma cell
# [26] = molecular target: T1, Bromodomain-containing protein 4; test: Induction of BRD4 degradation in human 231MFP cells at 10 uM incubated for 60 mins by Western blot analysis relative to control; assay type: cell-based
# [27] = molecular target: T1, Bromodomain-containing protein 4; test: Induction of BRD4 degradation in human 231MFP cells; assay type: cell-based
# CWR22R = test: Antitumor activity against human 22Rv1 cells xenografted in Nu/Nu mouse assessed as tumor growth inhibition at 30 mg/kg, sc; assay type: functional; conditions: read-out: TGI
# MV4-11 [28] = test: Antiproliferative activity against human MV4-11 cells assessed as cell growth inhibition measured after […] by Cell Titre Glo Luminescent assay; assay type: functional, cell-based
smiles,measurement,setting,value
Cc1sc2c(c1C)C(c1ccc(Cl)cc1)=N[C@@H](CC(=O)NCCOCCNC(=O)CN1CCOc3cc(N(CCC#N)C(=O)CCl)ccc31)c1nnc(C)n1-2,DC50,[1],820 nM
same,Emax,[2],81%
O=C(CCl)N1CCCc2cc(O)ccc21,Activity,[3],35%
Cc1sc2c(c1C)C(c1ccc(Cl)cc1)=N[C@@H](CC(=O)NCCOCCOCCN1CCOc3cc(N(CCC#N)C(=O)CCl)ccc31)c1nnc(C)n1-2,DC50,[1],1100 nM
same,Emax,[2],85%
Cc1sc2c(c1C)C(c1ccc(Cl)cc1)=N[C@@H](CC(=O)NCCCNC(=O)CN1CCOc3cc(N(CCC#N)C(=O)CCl)ccc31)c1nnc(C)n1-2,DC50,[1],810 nM
same,Emax,[2],71%
CCS(=O)(=O)Cc1cc2c(cc1C(=O)NCCCCCCCCCCC(=O)N[C@H](C(=O)N1C[C@@H](O)C[C@H]1C(=O)NCc1ccc(-c3scnc3C)cc1)C(C)(C)C)N(c1ncc(F)cc1F)Cc1c[nH]c3c(=O)n(C)cc-2c13,Emax,[4],> 99%
same,IC50,EOL1,0.02 nM
same,DC50,[5],0.03 nM
same,IC50,HL-60,0.03 nM
COc1cc(/N=N\c2cccc3c2CN(C2CCC(=O)NC2=O)C3=O)cc(OC)c1OCC(=O)NCCCCNC(=O)C[C@@H]1N=C(c2ccc(Cl)cc2)c2c(sc(C)c2C)-n2c(C)nnc21 (stereo partly specified),half-life,[6],528 min
CCS(=O)(=O)Nc1ccc(Oc2ccc(F)cc2F)c(-c2cn(C)c(=O)c3[nH]c(C(=O)NCc4cn(CCOCC(=O)Nc5cccc6c5CN(C5CCC(=O)NC5=O)C6=O)nn4)cc23)c1 (stereo unspecified),IC50,BXPC-3,170 nM
COc1cc(/N=N/c2cccc3c2CN(C2CCC(=O)NC2=O)C3=O)cc(OC)c1OCC(=O)NCCCCNC(=O)C[C@@H]1N=C(c2ccc(Cl)cc2)c2c(sc(C)c2C)-n2c(C)nnc21 (stereo partly specified),EC50,RS4-11 [7],88.5 nM
same,EC50,RS4-11 [8],610 nM
Cc1ncsc1-c1ccc([C@H](C)NC(=O)[C@@H]2C[C@@H](O)CN2C(=O)[C@@H](NC(=O)COCCCOCCNC(=O)C[C@@H]2N=C(c3ccc(Cl)cc3)c3c(sc(C)c3C)-n3c(C)nnc32)C(C)(C)C)cc1,DC50,[9],< 5 nM
same,IC50,[10],< 1 nM
same,DC50,[11],< 5 nM
same,IC50,EOL1,1.5 nM
same,DC50,[12],< 5 nM
same,IC50,HL-60,1.5 nM
same,EC50,Caspase-3/Caspase-7,90 nM
Cc1sc2c(c1C)C(c1ccc(Cl)cc1)=N[C@@H](CC(=O)NCCCCCNc1cccc3c1CN(C1CCC(=O)NC1=O)C3=O)c1nnc(C)n1-2 (stereo partly specified),IC50,MM1.S,6.7 nM
same,IC50,MV4-11 [13],0.9 nM
same,IC50,MDA-MB-468 [14],125 nM
same,DC50,[15],< 0.5 nM
Cc1sc2c(c1C)C(c1ccc(Cl)cc1)=N[C@@H](CC(=O)NCCOCCOCCOCCOCCN1CCOc3cc(N(CCC#N)C(=O)CCl)ccc31)c1nnc(C)n1-2,DC50,[1],1600 nM
same,Emax,[2],80%
Cc1ncsc1-c1ccc(CNC(=O)[C@@H]2[C@@H](F)[C@@H](O)CN2C(=O)[C@@H](NC(=O)COCCOCCOCCNC(=O)C[C@@H]2N=C(c3ccc(Cl)cc3)c3c(sc(C)c3C)-n3c(C)nnc32)C(C)(C)C)cc1,DC50,[16],1 nM
Cc1sc2c(c1C)C(c1ccc(Cl)cc1)=N[C@@H](CC(=O)NCCOCCOCCOCCN1CCOc3cc(N(CCC#N)C(=O)CCl)ccc31)c1nnc(C)n1-2,DC50,[1],3600 nM
same,Emax,[2],60%
Cc1sc2c(c1C)C(c1ccc(Cl)cc1)=N[C@@H](CC(=O)OC(C)(C)C)c1nnc(C)n1-2,GC50,SUD4,3.12 µM
CCn1nc(C2CC2)cc1Nc1nc(C(=O)NCCCOCCOCCOCCCNc2cccc3c2C(=O)N(C2CCC(=O)NC2=O)C3=O)nc2[nH]c3cc(-c4c(C)noc4C)c(OC)cc3c12 (stereo unspecified),GI50,NAMALVA,340 nM
same,IC50,MV4-11 [17],1240 nM
same,IC50,MDA-MB-468 [18],< 10 nM
same,Emax,[19],93%
same,IC50,[20],0.022 µM
same,DC50,[21],230 nM
same,IC50,MV4-11 [22],6 nM
same,Emax,[23],63%
same,inhibition in vivo at 5 mg/kg,MDA-MB-468 [24],85%
same,GI50,[25],400 nM
same,DC50,[15],5 nM
Cc1ncsc1-c1ccc(CNC(=O)[C@@H]2C[C@@H](O)CN2C(=O)[C@@H](NC(=O)COCC(C)(COCCOCCOCCNC(=O)C[C@@H]2N=C(c3ccc(Cl)cc3)c3c(sc(C)c3C)-n3c(C)nnc32)COCCOCCOCCNC(=O)C[C@@H]2N=C(c3ccc(Cl)cc3)c3c(sc(C)c3C)-n3c(C)nnc32)C(C)(C)C)cc1,EC50,Caspase-3/Caspase-7,2 nM
COc1cc(CN(CCCCNC(=O)COc2cccc3c2C(=O)N(C2CCC(=O)NC2=O)C3=O)C(=O)C[C@@H]2N=C(c3ccc(Cl)cc3)c3c(sc(C)c3C)-n3c(C)nnc32)c([N+](=O)[O-])cc1OC (stereo partly specified),GI50,NAMALVA,340 nM
same,IC50,[20],7.6 µM
same,GI50,[25],400 nM
Cc1sc2c(c1C)C(c1ccc(Cl)cc1)=N[C@@H](CC(=O)NCCCCOc1ccc(Oc3ccc(N(Cc4ccccc4)C(=O)CCl)cc3)cc1)c1nnc(C)n1-2,Activity,[26],30%
CCS(=O)(=O)Nc1ccc(Oc2ccc(F)cc2F)c(-c2cn(C)c(=O)c3[nH]ccc23)c1 [MIVEBRESIB],IC50,BXPC-3,1220 nM
COC(=O)C[C@H]1[C@]2(C)C3=C(C)[C@H](c4ccoc4-c4ccc(C(=O)NCCCNC(=O)C[C@@H]5N=C(c6ccc(Cl)cc6)c6c(sc(C)c6C)-n6c(C)nnc65)cc4)C[C@H]3O[C@@H]2[C@@H]2OC(=O)[C@]3(C)C=CC(=O)[C@@]1(C)[C@@H]23,IC50,[27],240 nM
Cc1c(C(=O)NCCCCCNc2cccc3c2C(=O)N(C2CCC(=O)NC2=O)C3=O)sc2c1C(c1ccc(Cl)cc1)=N[C@@H](CC(=O)OC(C)(C)C)c1nnc(C)n1-2 (stereo partly specified),DC50,[1],5 nM
Cc1sc2c(c1C)C(c1ccc(Cl)cc1)=N[C@@H](CC(=O)Nc1ccc(O)cc1)c1nnc(C)n1-2 [BIRABRESIB],inhibition in vivo at 30 mg/kg,CWR22R,38%
Cc1ncsc1-c1ccc(CNC(=O)[C@@H]2C[C@@H](O)CN2C(=O)[C@@H](NC(=O)COCCOCCOCCNC(=O)C[C@@H]2N=C(c3ccc(Cl)cc3)c3c(sc(C)c3C)-n3c(C)nnc32)C(C)(C)C)cc1,EC50,MV4-11 [28],50.1 nM
same,IC50,EOL1,1.5 nM
same,IC50,HL-60,1.5 nM
same,EC50,Caspase-3/Caspase-7,150 nM

# Source: ChEMBL document CHEMBL5241114, “A comprehensive review of BET-targeting PROTACs for cancer therapy” (Bioorg Med Chem, 2022)
